Measurements as given in PMC7397274, “Triazolopyridopyrimidine: A New Scaffold for Dual-Target Small Molecules for Alzheimer’s Disease Therapy” (Molecules, 2020).
“And” between values parts separate entries of the source, which are not always exact repeats. Equal entries are not always repeated. Where two headings read alike, the source gives them in different places.

Tests used:
EeAChE = target: T1, EeAChE (Electrophorus electricus, UniProt O42275); assay: biochemical; assay type: biochemical; settings: for inhibition at 10 µM: 10 μM compound; for inhibition at 10 µM / IC50: Ellman method; for IC50: mean ± SEM; for fold less active than tacrine (EeAChE IC50): relative to tacrine IC50 = 0.03 μM
T1 construct: purchased Sigma Aldrich
T1 sequence (O42275 24-633): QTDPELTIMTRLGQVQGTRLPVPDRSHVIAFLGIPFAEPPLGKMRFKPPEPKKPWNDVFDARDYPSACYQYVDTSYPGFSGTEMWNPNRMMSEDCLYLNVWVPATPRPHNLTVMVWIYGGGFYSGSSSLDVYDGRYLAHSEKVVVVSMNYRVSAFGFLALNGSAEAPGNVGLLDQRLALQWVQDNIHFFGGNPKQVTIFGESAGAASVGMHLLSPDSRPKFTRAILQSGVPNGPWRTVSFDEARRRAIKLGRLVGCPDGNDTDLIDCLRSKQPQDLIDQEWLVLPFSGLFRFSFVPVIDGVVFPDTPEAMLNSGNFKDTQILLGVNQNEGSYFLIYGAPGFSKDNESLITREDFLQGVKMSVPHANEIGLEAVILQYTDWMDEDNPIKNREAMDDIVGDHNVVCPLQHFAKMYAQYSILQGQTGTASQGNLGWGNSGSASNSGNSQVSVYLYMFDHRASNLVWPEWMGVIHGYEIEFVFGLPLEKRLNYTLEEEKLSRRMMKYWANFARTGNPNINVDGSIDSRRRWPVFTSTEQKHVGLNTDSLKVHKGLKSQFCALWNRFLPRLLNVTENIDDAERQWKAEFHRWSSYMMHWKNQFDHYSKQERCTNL
Description: The effect of the test compounds on the activity of both EeAChE and eqBuChE was evaluated following the spectrophotometric method of Ellman. The reaction occurred in a final volume of 3 mL of a 0.1 M phosphate-buffered solution at pH = 8.0, containing 5,5′-dithiobis-2-nitrobenzoic acid (DTNB, 2625 µL, 0.35 mM, final concentration), EeAChE (29 µL, 0.035 U/mL, final concentration) or eqBuChE (60 µL, 0.05 U/mL, final concentration), tested compound (3 µL, […]), and 1% w/v bovine albumin serum phosphate-buffered (pH = 8) solution (BSA, 60 µL). After this pre-incubation period, acetylthiocholine iodide (105 µL, 0.35 mM, final concentration) or butyrylthiocholine iodide (150 µL, 0.5 mM, final concentration) was added, allowing 15 min of additional incubation time.

[1] = ORAC-FL; for ORAC (TE): fluorescein probe, Trolox standard, mean (n = 3) ± SEM; for antioxidant activity (ORAC) in words: qualitative statement or comparison with positive controls
Description: The ability of triazolopyridopyrimidines 3a–k to reduce the amount of peroxyl radicals was determined by the oxygen radical absorbance capacity by fluorescence (ORAC-FL) method [26, 27] using fluorescein (FL) as the fluorescent probe, and 6-hydroxy-2,5,7,8-tetramethyl-chroman-2-carboxylic acid (Trolox) as standard compound. Results were expressed as μmol Trolox equivalents (TE).
Briefly, fluorescein and antioxidant were incubated in a black 96-well microplate (Nunc) for 15 min at 37 °C. 2,2′-Azobis(amidinopropane) dihydrochloride was then added quickly using the built-in injector of Varioskan Flash plate reader (Thermo Scientific). The fluorescence was measured at 485 nm (excitation wavelength) and 535 nm (emission wavelength) each min for 1 h. All the reactions were made in triplicate and at least three different assays were performed for each sample.

Compound | inhibition at 10 µM (EeAChE) | IC50 (EeAChE) | fold less active than tacrine (EeAChE IC50) (EeAChE) | ORAC (TE) [1] | ORAC (TE) ([1]; listed as ferulic acid) | antioxidant activity (ORAC) in words [1]
COc1ccc(-c2c(C#N)c3nc(-c4ccccc4)nn3c3ncnc(N)c23)cc1 [Compound 3c, 6-Amino-5-(4-methoxyphenyl)-2-phenyl-[1,2,4]triazolo[1′,5′:1,6]pyrido[2,3-d] pyrimidine-4-carbonitrile] | 63.9 ± 1.8% | 1.3 µM and 1.32 µM | 44 fold | 4.01 TE and 4.01 ± 0.1 TE | – | –
N#Cc1c(-c2ccccc2)c2c(N)ncnc2n2nc(-c3ccccc3)nc12 [Compound 3a, 6-Amino-2,5-diphenyl-[1,2,4]triazolo[1′,5′:1,6]pyrido[2,3-d] pyrimidine-4-carbonitrile] | 40.3 ± 2.4% | – | – | 1.85 ± 0.1 TE | – | –
N#Cc1c(-c2ccc(Br)cc2)c2c(N)ncnc2n2nc(-c3ccccc3)nc12 [Compound 3j, 6-Amino-5-(4-bromophenyl)-2-phenyl-[1,2,4]triazolo[1′,5′:1,6]pyrido[2,3-d] pyrimidine-4-carbonitrile] | 38.1 ± 1.1% | – | – | 2.57 ± 0.0 TE | – | –
COc1cc(/C=C/C(=O)O)ccc1O [Ferulic acid, reference compound] | – | – | – | 3.74 ± 0.2 TE | 3.7 TE | –
N#Cc1c(-c2ccc([N+](=O)[O-])cc2)c2c(N)ncnc2n2nc(-c3ccccc3)nc12 [Compound 3h, 6-Amino-5-(4-nitrophenyl)-2-phenyl-[1,2,4]triazolo[1′,5′:1,6]pyrido[2,3-d] pyrimidine-4-carbonitrile] | 44.6 ± 1.6% | – | – | 3.54 ± 0.1 TE | – | moderate antioxidants
COc1cccc(-c2c(C#N)c3nc(-c4ccccc4)nn3c3ncnc(N)c23)c1 [Compound 3d, 6-Amino-5-(3-methoxyphenyl)-2-phenyl-[1,2,4]triazolo[1′,5′:1,6]pyrido[2,3-d] pyrimidine-4-carbonitrile] | 31.2 ± 2.1% | – | – | 4.33 ± 0.1 TE | – | –
N#Cc1c(-c2ccc(O)cc2)c2c(N)ncnc2n2nc(-c3ccccc3)nc12 [Compound 3g, 6-Amino-5-(4-hydroxyphenyl)-2-phenyl-[1,2,4]triazolo[1′,5′:1,6]pyrido[2,3-d] pyrimidine-4-carbonitrile] | 36.4 ± 0.6% | – | – | 7.17 TE and 7.17 ± 0.2 TE | – | most potent antioxidant
Cc1ccc(-c2c(C#N)c3nc(-c4ccccc4)nn3c3ncnc(N)c23)cc1 [Compound 3b, 6-Amino-2-phenyl-5-(p-tolyl)-[1,2,4]triazolo[1′,5′:1,6]pyrido[2,3-d] pyrimidine-4-carbonitrile] | 73.13 ± 0.1% | 1.17 µM | 39 fold | 1.77 TE and 1.77 ± 0.1 TE | – | –
CC(C)c1ccc(-c2c(C#N)c3nc(-c4ccccc4)nn3c3ncnc(N)c23)cc1 [Compound 3i, 6-Amino-5-(4-isopropylphenyl)-2-phenyl-[1,2,4]triazolo[1′,5′:1,6]pyrido[2,3-d] pyrimidine-4-carbonitrile] | 18.2 ± 1% | – | – | 1.89 ± 0.1 TE | – | –
N#Cc1c(-c2ccc(Cl)cc2)c2c(N)ncnc2n2nc(-c3ccccc3)nc12 [Compound 3f, 6-Amino-5-(4-chlorophenyl)-2-phenyl-[1,2,4]triazolo[1′,5′:1,6]pyrido[2,3-d] pyrimidine-4-carbonitrile] | 43.9 ± 1.2% | – | – | 1.81 ± 0.1 TE | – | –
N#Cc1c(-c2ccc(Oc3ccccc3)cc2)c2c(N)ncnc2n2nc(-c3ccccc3)nc12 [Compound 3k, 6-Amino-5-(4-phenoxyphenyl)-2-phenyl-[1,2,4]triazolo[1′,5′:1,6]pyrido[2,3-d] pyrimidine-4-carbonitrile] | 18.6 ± 1.8% | – | – | 2.99 ± 0.2 TE | – | weaker antioxidant activity
COc1ccccc1-c1c(C#N)c2nc(-c3ccccc3)nn2c2ncnc(N)c12 [Compound 3e, 6-Amino-5-(2-methoxyphenyl)-2-phenyl-[1,2,4]triazolo[1′,5′:1,6]pyrido[2,3-d] pyrimidine-4-carbonitrile] | 32.3 ± 2.4% | – | – | 3.79 ± 0.1 TE | – | –
